Measured values from patent US10849878B2 (OBSHCHESTVO S OGRANICHENNOY OTVETSTVENNOSTYU “NORMOFARM”, priority 2015, dated 2020).

Experiments:
white Wistar rats [1] = assay: transport stress simulation test (shaker, 240 min); type: in vivo, rat; parameters: AST in blood serum / ALT in blood serum / Creatinine in blood serum: unit not given here
Method: The anti-stress, anxiolytic and antidepressant effects of the claimed agent and compositions on its basis were determined as follows. […] The suspension test. Five animals from each group were used. Each animal was suspended for 24 hours. After that the sample of whole blood was taken from the sublingual vessels of that animal Then the animal was placed in a desiccator with diethyl ether. 60 minutes later a spinal decapitation of the animal was performed. The abdominal opening was performed and the number of ulcers on the inner surface of the stomach was counted. The obtained whole blood was placed in two test tubes. The whole blood was used to determine the number of eosinophils by the Duncker method. Serum was used to determine the biochemical composition of the blood. Adrenaline and norepinephrine were determined as biochemical indices. These characteristics are specific markers identifying the impact of stress factors of various etiologies. • 2. The transport stress simulation test. Five animals from each group were used. The animals were placed in cages fixed on a laboratory shutter. The duration of the test was 240 minutes. At the end of the test the animals were examined by the techniques described in paragraph 1. A sample of whole blood was taken to determine the number of eosinophils by the Duncker method. The blood serum was studied to measure the amount of enzymes: alanine aminotransferase (ALT), aspartate aminotransferase (AST), creatinine
The tests were carried out on 2-month-old rats of the Wistar line. The groups were selected according to the principle of paired counterparts.
During the course of the study the animals were selected from the formed groups of 10 animals each to participate in stress tests, 5 animals per test. The selection was made on the 7th, 14th, 21st day of the drug administration (experiments were performed on the same days right after selection). The animals were weighed weekly immediately before testing. The obtained data were processed by statistical methods of mathematical statistics. […] Water for injection produced by the “Bufus Novosibkhimpharm” was used as a solvent. The introduced volume was 1.5 ml. The solution was introduced at the same tine 2 hours after morning feeding. The first group was given water for injection by the same way. The volume of administration was 1.5 ml.
The rotating universal Shaker Unimax 10 was used as a model for simulating transport stress. The rotation speed was chosen at 120 rpm for 240 min A cage with five animals was fixed on the site. The rats stayed in the cage in a free state. A change in the reaction of animals with prolonged administration of the drug was observed. The sampling and decapitation process is described in Example 1.
Physiological, morphological and biochemical blood parametres were determined as markers of the impact of stress on animals, such as: individual and group behavior of animals, the number of enuresis acts, the number of defecation acts, and the number of excrement boluses; eosinophils in whole blood according to Duncker and the levels of ALT, AST enzymes and creatinine in the blood serum were measured.
Transport stress is a striking example of technological effect on animal and human body. […] Thus, it suits best as an indicator for the observation of the classical example of the development of the adaptive syndrome by Selye. In the experiment, a simulation of the transport impact on the rats was performed with the help of the laboratory shutter. Progressive 4 hour-long circular vibrations adversely affected the animals. The rats in the control group were constantly moving, colliding with each other trying to concentrate in the corners, where the amplitude of the oscillation was the highest. At the same time the number of defecation acts was higher. The animals behaved aggressively. The stronger ones tried to push out a weaker animal out of the corner.

white Wistar rats [2] = assay: suspension test (24 h), antistress and anxiolytic activity; type: in vivo, rat; conditions: 60 mg/kg in the form of pills with cocoa, administration day 7
[3] = 30 mg/kg solution by gastric tube, administration day 7
[4] = 30 mg/kg solution by gastric tube, administration day 14
[5] = 30 mg/kg solution by gastric tube, administration day 21
[6] = 60 mg/kg in the form of pills with cocoa, administration day 7
[7] = 60 mg/kg in the form of pills with cocoa, administration day 14
[8] = 60 mg/kg in the form of pills with cocoa, administration day 21
[9] = 60 mg/kg solution by gastric tube, administration day 7
[10] = 60 mg/kg solution by gastric tube, administration day 14
[11] = 60 mg/kg solution by gastric tube, administration day 21
[12] = 120 mg/kg solution by gastric tube, administration day 7
[13] = 120 mg/kg solution by gastric tube, administration day 14
[14] = 120 mg/kg solution by gastric tube, administration day 21

SMILES: O=C1O[C@H]([C@@H](O)CO)C([O-])=C1O.[Li+] [lithium ascorbate]
- ALT in blood serum (white Wistar rats [1]; [3]): 29.8 ± 8.45
- AST in blood serum (white Wistar rats [1]; [3]): 91.7 ± 7.29
- Creatinine in blood serum (white Wistar rats [1]; [3]): 36.5 ± 3.84
- Eosinophil count in whole blood (white Wistar rats [1]; [3]): 794 ± 6.9
- Number of boluses in defecation (white Wistar rats [1]; [3]): 4.2 ± 0.4
- ALT in blood serum (white Wistar rats [1]; [4]): 32.1 ± 9.10
- AST in blood serum (white Wistar rats [1]; [4]): 109.9 ± 9.67
- Creatinine in blood serum (white Wistar rats [1]; [4]): 48.1 ± 3.82
- Eosinophil count in whole blood (white Wistar rats [1]; [4]): 921 ± 9.1
- Number of boluses in defecation (white Wistar rats [1]; [4]): 3.9 ± 0.4
- ALT in blood serum (white Wistar rats [1]; [5]): 31.7 ± 3.14
- AST in blood serum (white Wistar rats [1]; [5]): 121.2 ± 7.21
- Creatinine in blood serum (white Wistar rats [1]; [5]): 46.3 ± 3.26
- Eosinophil count in whole blood (white Wistar rats [1]; [5]): 928 ± 10.7
- Number of boluses in defecation (white Wistar rats [1]; [5]): 3.5 ± 0.3
- ALT in blood serum (white Wistar rats [1]; [6]): 22.7 ± 8.19
- AST in blood serum (white Wistar rats [1]; [6]): 68.8 ± 4.72
- Creatinine in blood serum (white Wistar rats [1]; [6]): 25.7 ± 4.30
- Eosinophil count in whole blood (white Wistar rats [1]; [6]): 528 ± 5.8
- Number of boluses in defecation (white Wistar rats [1]; [6]): 7.2 ± 1.5
- ALT in blood serum (white Wistar rats [1]; [7]): 34.8 ± 6.83
- AST in blood serum (white Wistar rats [1]; [7]): 119.7 ± 6.21
- Creatinine in blood serum (white Wistar rats [1]; [7]): 56.7 ± 6.44
- Eosinophil count in whole blood (white Wistar rats [1]; [7]): 938 ± 11.7
- Number of boluses in defecation (white Wistar rats [1]; [7]): 5.2 ± 0.9
- ALT in blood serum (white Wistar rats [1]; [8]): 35.0 ± 4.29
- AST in blood serum (white Wistar rats [1]; [8]): 121. ± 4.29
- Creatinine in blood serum (white Wistar rats [1]; [8]): 58.4 ± 9.30
- Eosinophil count in whole blood (white Wistar rats [1]; [8]): 947 ± 12.4
- Number of boluses in defecation (white Wistar rats [1]; [8]): 3.7 ± 0.3
- ALT in blood serum (white Wistar rats [1]; [9]): 31.0 ± 3.15
- AST in blood serum (white Wistar rats [1]; [9]): 97.9 ± 5.04
- Creatinine in blood serum (white Wistar rats [1]; [9]): 39.6 ± 7.98
- Eosinophil count in whole blood (white Wistar rats [1]; [9]): 822 ± 8.7
- Number of boluses in defecation (white Wistar rats [1]; [9]): 4.6 ± 0.4
- ALT in blood serum (white Wistar rats [1]; [10]): 33.1 ± 2.84
- AST in blood serum (white Wistar rats [1]; [10]): 112.4 ± 6.23
- Creatinine in blood serum (white Wistar rats [1]; [10]): 48.3 ± 8.27
- Eosinophil count in whole blood (white Wistar rats [1]; [10]): 919 ± 4.1
- Number of boluses in defecation (white Wistar rats [1]; [10]): 3.9 ± 0.4
- ALT in blood serum (white Wistar rats [1]; [11]): 32.4 ± 6.37
- AST in blood serum (white Wistar rats [1]; [11]): 115.5 ± 8.97
- Creatinine in blood serum (white Wistar rats [1]; [11]): 45.6 ± 2.73
- Eosinophil count in whole blood (white Wistar rats [1]; [11]): 922 ± 9.3
- Number of boluses in defecation (white Wistar rats [1]; [11]): 3.7 ± 0.7
- ALT in blood serum (white Wistar rats [1]; [12]): 32.4 ± 7.75
- AST in blood serum (white Wistar rats [1]; [12]): 107.1 ± 6.20
- Creatinine in blood serum (white Wistar rats [1]; [12]): 39.8 ± 6.13
- Eosinophil count in whole blood (white Wistar rats [1]; [12]): 856 ± 4.2
- Number of boluses in defecation (white Wistar rats [1]; [12]): 5.0 ± 1.1
- ALT in blood serum (white Wistar rats [1]; [13]): 31.7 ± 7.32
- AST in blood serum (white Wistar rats [1]; [13]): 110.3 ± 7.41
- Creatinine in blood serum (white Wistar rats [1]; [13]): 47.8 ± 1.46
- Eosinophil count in whole blood (white Wistar rats [1]; [13]): 901 ± 16.8
- Number of boluses in defecation (white Wistar rats [1]; [13]): 4.1 ± 1.1
- ALT in blood serum (white Wistar rats [1]; [14]): 30.1 ± 7.42
- AST in blood serum (white Wistar rats [1]; [14]): 118.7 ± 4.48
- Creatinine in blood serum (white Wistar rats [1]; [14]): 42.1 ± 2.97
- Eosinophil count in whole blood (white Wistar rats [1]; [14]): 907 ± 4.3
- Number of boluses in defecation (white Wistar rats [1]; [14]): 4.0 ± 1.0
- Adrenaline level in blood serum (white Wistar rats [2]): 22.6 ± 4.27 µg/L
